≈ marks a conversion by molar mass, not a printed value. Calls of active or inactive are those of the source. No cut-off for these calls is given here.
Key:
Bacillus subtilis [1] = assay: Antibacterial activity against Bacillus subtilis MTCC 121 after 24 hr by modified agar well diffusion assay; format: functional; settings: MTCC 121, 24 h
Staphylococcus aureus [2] = assay: Antibacterial activity against Staphylococcus aureus MTCC 96 after 24 hr by modified agar well diffusion assay; format: functional; settings: MTCC 96, 24 h
Bacillus subtilis [3] = assay: Antibacterial activity against Bacillus subtilis MTCC 121 at 4 mg/ml after 24 hr by agar well diffusion assay; format: functional; settings: MTCC 121, 24 h, read-out: DIZ
Staphylococcus aureus [4] = assay: Antibacterial activity against Staphylococcus aureus MTCC 96 at 4 mg/ml after 24 hr by agar well diffusion assay; format: functional; settings: MTCC 96, 24 h, read-out: DIZ
Rattus norvegicus [5] = assay: Anti-inflammatory activity in Rattus norvegicus Wistar albino (rat) assessed as inhibition of carrageenan-induced paw edema at 50 mg/kg, po administered 30 min prior to carrageenan-challenge measured at 4 hr by plethysmometric analysis relative to control; format: functional
Rattus norvegicus [6] = assay: Anti-inflammatory activity in Rattus norvegicus Wistar albino (rat) assessed as inhibition of carrageenan-induced paw edema at 50 mg/kg, po administered 30 min prior to carrageenan-challenge measured at 3 hr by plethysmometric analysis relative to control; format: functional
Candida albicans [7] = assay: Antifungal activity against Candida albicans MTCC 227 after 24 hr by modified agar well diffusion assay; format: functional
Candida albicans [8] = assay: Antifungal activity against Candida albicans MTCC 227 at 4 mg/ml after 24 hr by agar well diffusion assay; format: functional; settings: for zone of inhibition at 4000 µg/mL: MTCC 227, 24 h, read-out: DIZ
Saccharomyces cerevisiae [9] = assay: Antifungal activity against Saccharomyces cerevisiae MTCC 170 after 24 hr by modified agar well diffusion assay; format: functional
Saccharomyces cerevisiae [10] = assay: Antifungal activity against Saccharomyces cerevisiae MTCC 170 at 4 mg/ml after 24 hr by agar well diffusion assay; format: functional; settings: for zone of inhibition at 4000 µg/mL: MTCC 170, 24 h, read-out: DIZ
Pseudomonas aeruginosa = assay: Antibacterial activity against Pseudomonas aeruginosa MTCC 741 at 4 mg/ml after 24 hr by agar well diffusion assay; format: functional, organism-based
Escherichia coli = assay: Antibacterial activity against Escherichia coli MTCC 1652 at 4 mg/ml after 24 hr by agar well diffusion assay; format: functional, organism-based
Rattus norvegicus [11] = assay: Anti-inflammatory activity in Rattus norvegicus Wistar albino (rat) assessed as inhibition of carrageenan-induced paw edema at 50 mg/kg, po administered 30 min prior to carrageenan-challenge measured at 2 hr by plethysmometric analysis relative to control; format: functional
Rattus norvegicus [12] = assay: Anti-inflammatory activity in Rattus norvegicus Wistar albino (rat) assessed as inhibition of carrageenan-induced paw edema at 50 mg/kg, po administered 30 min prior to carrageenan-challenge measured at 1 hr by plethysmometric analysis relative to control; format: functional
Rattus norvegicus [13] = assay: Anti-inflammatory activity in Rattus norvegicus Wistar albino (rat) assessed as inhibition of carrageenan-induced paw edema at 4 mg/kg, ip administered 30 min prior to carrageenan-challenge measured at 4 hr by plethysmometric analysis relative to control; format: functional; settings: route intraperitoneal
Rattus norvegicus [14] = assay: Anti-inflammatory activity in Rattus norvegicus Wistar albino (rat) assessed as inhibition of carrageenan-induced paw edema at 4 mg/kg, ip administered 30 min prior to carrageenan-challenge measured at 3 hr by plethysmometric analysis relative to control; format: functional; settings: route intraperitoneal
Rattus norvegicus [15] = assay: Anti-inflammatory activity in Rattus norvegicus Wistar albino (rat) assessed as inhibition of carrageenan-induced paw edema at 4 mg/kg, ip administered 30 min prior to carrageenan-challenge measured at 2 hr by plethysmometric analysis relative to control; format: functional; settings: route intraperitoneal
Rattus norvegicus [16] = assay: Anti-inflammatory activity in Rattus norvegicus Wistar albino (rat) assessed as inhibition of carrageenan-induced paw edema at 4 mg/kg, ip administered 30 min prior to carrageenan-challenge measured at 1 hr by plethysmometric analysis relative to control; format: functional; settings: route intraperitoneal

Row | Structure (SMILES) | MIC (Bacillus subtilis [1]) | MIC (Staphylococcus aureus [2]) | zone of inhibition at 4000 µg/mL (Bacillus subtilis [3]) | zone of inhibition at 4000 µg/mL (Staphylococcus aureus [4]) | inhibition in vivo at 50 mg/kg (Rattus norvegicus [5]) | inhibition in vivo at 50 mg/kg (Rattus norvegicus [6]) | MIC (Candida albicans [7]; MTCC 227, 24 h) | zone of inhibition at 4000 µg/mL (Candida albicans [8]) | MIC (Saccharomyces cerevisiae [9]; MTCC 170, 24 h) | zone of inhibition at 4000 µg/mL (Saccharomyces cerevisiae [10]) | Activity (Pseudomonas aeruginosa) | Activity (Escherichia coli) | inhibition in vivo at 50 mg/kg (Rattus norvegicus [11]) | inhibition in vivo at 50 mg/kg (Rattus norvegicus [12]) | MIC (Candida albicans [7]) | diameter of the inhibition zone (DIZ) (Candida albicans [8]) | MIC (Saccharomyces cerevisiae [9]) | diameter of the inhibition zone (DIZ) (Saccharomyces cerevisiae [10]) | also measured
1 | COc1ccc(C2CC(c3ccc(Cl)cc3)=NN2c2ccc(S(N)(=O)=O)cc2)c(OC)c1 (centres undefined) | 64 mg/L (≈ 136 µM) | 64 mg/L (≈ 136 µM) | 19.3 mm | 18.3 mm | 32.9% | 57.2% | 128 mg/L (≈ 271 µM) | 13.6 mm | 64 mg/L (≈ 136 µM) | 16 mm | inactive | inactive | 48.8% | 43.5% |  |  |  |  | 
2 | COc1ccc(C2CC(c3ccc(F)cc3)=NN2c2ccc(S(N)(=O)=O)cc2)cc1OC (centres undefined) | 128 mg/L (≈ 281 µM) | 256 mg/L (≈ 562 µM) | 15.3 mm | 14 mm | 53.1% | 62.8% |  |  |  |  | inactive | inactive | 53.5% | 62.3% | inactive | inactive | inactive | inactive | 
3 | COc1ccc(OC)c(C2CC(c3ccc(Cl)cc3)=NN2c2ccc(S(N)(=O)=O)cc2)c1 (centres undefined) | 64 mg/L (≈ 136 µM) | 128 mg/L (≈ 271 µM) | 18.6 mm | 15.3 mm | 45.4% | 58.9% | 128 mg/L (≈ 271 µM) | 14.3 mm | 32 mg/L (≈ 67.8 µM) | 17.6 mm | inactive | inactive | 48.8% | 14.5% |  |  |  |  | 
4 | O=C(O)c1cn(C2CC2)c2cc(N3CCNCC3)c(F)cc2c1=O [CIPROFLOXACIN] | 5 mg/L (≈ 15.1 µM) | 5 mg/L (≈ 15.1 µM) | 24 mm | 26.6 mm |  |  |  |  |  |  |  |  |  |  |  |  |  |  | 
5 | COc1cccc(C2CC(c3ccc(F)cc3)=NN2c2ccc(S(N)(=O)=O)cc2)c1OC (centres undefined) | 64 mg/L (≈ 141 µM) | 128 mg/L (≈ 281 µM) | 18.3 mm | 17.6 mm | 51.5% | 53.8% | 128 mg/L (≈ 281 µM) | 13.6 mm | 64 mg/L (≈ 141 µM) | 15.6 mm | inactive | inactive | 40.1% | 59.4% |  |  |  |  | 
6 | COc1ccc(C2CC(c3ccc(Cl)cc3)=NN2c2ccc(S(N)(=O)=O)cc2)cc1OC (centres undefined) | 128 mg/L (≈ 271 µM) | 256 mg/L (≈ 542 µM) | 17.3 mm | 13.6 mm | 49.5% | 68.3% |  |  |  |  | inactive | inactive | 64.6% | 57.9% | inactive | inactive | inactive | inactive | 
7 | COc1cc(OC)cc(C2CC(c3ccc(OC)cc3O)=NN2c2ccc(S(N)(=O)=O)cc2)c1 (centres undefined) | 256 mg/L (≈ 529 µM) | 256 mg/L (≈ 529 µM) | 14.3 mm | 13.3 mm | 50% | 62.8% |  |  |  |  | inactive | inactive | 57.5% | 31.9% | inactive | inactive | inactive | inactive | 
8 | C[C@@H]1[C@H](O)[C@@H](C)/C=C/C=C/C=C/C=C/C=C/C=C/C=C/[C@H](O[C@@H]2O[C@H](C)[C@@H](O)[C@H](N)[C@@H]2O)C[C@@H]2O[C@](O)(C[C@@H](O)C[C@@H](O)[C@H](O)CC[C@@H](O)C[C@@H](O)CC(=O)O[C@H]1C)C[C@H](O)[C@H]2C(=O)O [AMPHOTERICIN B] |  |  |  |  |  |  | 100 mg/L (≈ 108 µM) | 14.3 mm | 100 mg/L (≈ 108 µM) | 13.6 mm |  |  |  |  |  |  |  |  | 
9 | COc1ccc2c(c1)c(CC(=O)O)c(C)n2C(=O)c1ccc(Cl)cc1 [INDOMETHACIN] |  |  |  |  |  |  |  |  |  |  |  |  |  |  |  |  |  |  | inhibition in vivo at 4 mg/kg (Rattus norvegicus [13]): 74.7%; inhibition in vivo at 4 mg/kg (Rattus norvegicus [14]): 77.2%; inhibition in vivo at 4 mg/kg (Rattus norvegicus [15]): 81.9%; inhibition in vivo at 4 mg/kg (Rattus norvegicus [16]): 69.6%
10 | COc1cc(OC)cc(C2CC(c3ccc(F)cc3)=NN2c2ccc(S(N)(=O)=O)cc2)c1 (centres undefined) | 256 mg/L (≈ 562 µM) | > 256 mg/L | 13.6 mm | 12.6 mm | 50% | 51.1% |  |  |  |  | inactive | inactive | 33.1% | 49.3% | inactive | inactive | inactive | inactive | 
11 | COc1ccc(OC)c(C2CC(c3ccc(F)cc3)=NN2c2ccc(S(N)(=O)=O)cc2)c1 (centres undefined) | 128 mg/L (≈ 281 µM) | 256 mg/L (≈ 562 µM) | 15 mm | 13.6 mm | 41.7% | 48.3% |  |  |  |  | inactive | inactive | 30.7% | 50.7% | inactive | inactive | inactive | inactive | 
12 | COc1ccc(C2=NN(c3ccc(S(N)(=O)=O)cc3)C(c3cccc(OC)c3OC)C2)c(O)c1 (centres undefined) | 32 mg/L (≈ 66.2 µM) | 64 mg/L (≈ 132 µM) | 20.6 mm | 18.6 mm | 43.8% | 45% | 128 mg/L (≈ 265 µM) | 14.3 mm | 64 mg/L (≈ 132 µM) | 15.6 mm | inactive | inactive | 25.2% | 47.8% |  |  |  |  | 
13 | COc1cccc(C2CC(c3ccc(Cl)cc3)=NN2c2ccc(S(N)(=O)=O)cc2)c1OC (centres undefined) | 128 mg/L (≈ 271 µM) | 256 mg/L (≈ 542 µM) | 15 mm | 13.6 mm | 27.8% | 46.1% | 64 mg/L (≈ 136 µM) | 15.3 mm | 32 mg/L (≈ 67.8 µM) | 17.3 mm | inactive | inactive | 35.4% | 18.8% |  |  |  |  | 
14 | COc1ccc(C2=NN(c3ccc(S(N)(=O)=O)cc3)C(c3ccc(OC)cc3OC)C2)c(O)c1 (centres undefined) | 64 mg/L (≈ 132 µM) | 128 mg/L (≈ 265 µM) | 18.6 mm | 15.6 mm | 37.1% | 40.6% |  |  |  |  | inactive | inactive | 16.5% | 33.3% | inactive | inactive | inactive | inactive | 
15 | COc1cc(OC)cc(C2CC(c3ccc(Cl)cc3)=NN2c2ccc(S(N)(=O)=O)cc2)c1 (centres undefined) | > 256 mg/L | > 256 mg/L | 13.6 mm | 12 mm | 46.4% | 46.1% | > 256 mg/L | 12.6 mm | 64 mg/L (≈ 136 µM) | 16.3 mm | inactive | inactive | 26.8% | 11.6% |  |  |  |  | 
16 | COc1ccc(C2CC(c3ccc(F)cc3)=NN2c2ccc(S(N)(=O)=O)cc2)c(OC)c1 (centres undefined) | 128 mg/L (≈ 281 µM) | 128 mg/L (≈ 281 µM) | 16.3 mm | 15.3 mm | 47.9% | 47.7% |  |  |  |  | inactive | inactive | 35.4% | 63.7% | inactive | inactive | inactive | inactive | 

— ChEMBL document CHEMBL3044986, “Synthesis of 1-(4-aminosulfonylphenyl)-3,5-diarylpyrazoline derivatives as potent antiinflammatory and antimicrobial agents” (2012)
